Results: patent US8389484B2, “Methods for targeting RNA molecules” (priority 1999, dated 2013)
In the oligonucleotide strings, read from the 5' end, every base follows the letter of its sugar. An asterisk marks phosphorothioate; unmarked linkages are phosphodiester. Other units and linkages are bracketed, terminal groups are in braces. A string of capitals states the bases alone. d = 2'-deoxy (DNA)

Key:
[1] = system: U- and C-alleles of the 544-mer fragment of the RPA70-1674U/C mRNA; assay: E. coli RNase H digestion assay, oligo-directed cleavage in a purified system; assay type: biochemical, human; conditions: for reduction in the cleavage of both alleles as compared to parent oligo 3: 544-mer U- and C-alleles, E. coli RNase H; for enhancement in allele discrimination versus parent oligo 3: hairpin oligos, under the experimental conditions; for cleavage efficiency, matched allele versus mismatched allele: 544-mer RPA70 mRNA fragments, oligos target the SNP at position 1674
Text: FIG. 3. E. coli RNase H digestion of both alleles of the 544-mer fragment of the RPA70-1674U/C mRNA. a, Nucleotide sequence of the PS-oligos used in the assay. Oligos 1 and 2 (SEQ ID NOs:6 and 7, respectively) target the polymorphic site; the bases opposing the polymorphism in the mRNA are shown in boldface. Oligos 3 and 6 (SEQ ID NOs:8 and 11, respectively) target the site of different allelic structures around nucleotide 1656. The terminal residues of oligos 1, 2, 3, and 6 (SEQ ID NOs:6, 7, 8, and 11, respectively) are labeled according to the positions of the complementary nucleotides in RPA70 mRNA. Oligos 4 and 5 (SEQ ID NOs:9 and 10, respectively) share the same target hybridization sequence as 3 (SEQ ID NO:8), but with additional nucleotides (shown underlined) added to facilitate folding into hairpin structures for intended enhancement in allele discrimination. b, E. coli RNase H digestion patterns of the 5′-^32P-labeled U- and C-alleles hybridized to the oligos in a. Cleavage sites were confirmed by running on the same gel RNase T1 digestion ladders for the two alleles (not shown): they are centered at position 1674 for oligos 1 and 2 (SEQ ID NOs:6 and 7), 1650 for oligos 3-5 (SEQ ID NOs:8-10), and 1654 for oligo 6 (SEQ ID NO:11). c, Comparison of percent cleavages of the U- and C-alleles calculated from b. Oligo-dependent-cleavage bands were integrated as a percentage of total RNA in each lane with the overlapping background-cleavage bands subtracted. Variations in sample loading to each lane were internally corrected by measuring percent cleavage instead of absolute band intensity.
E. coli RNase H Digestion Assay. Phosphorothioate oligodeoxyribonucleotides (PS-oligos) were employed in our studies because of their enhanced stability against nucleases (20). PS-oligos were chemically synthesized and desalted on C-18 cartridges by Synthetic Genetics. One, pmol of 5′-^32P-labeled mRNA was renatured in 12 μL RNase H buffer (20 mM Tris.HCl, pH 7.5, 10 mM KCl, 5 mM MgCl2, 0.1 mM dithiothreitol (DTT), 5% glycerol, and 10 μg phenol-extracted glycogen) by heating for 1 min at 85° C., then cooling for 5 min at room temperature followed by 10 min at 37° C. E. coli RNase H (0.6 units, Pharmacia) was then added to the renatured mRNA and incubated for 5 min at 37° C. PS-oligos (5 pmol in RNase H buffer) were subsequently added, and the reaction mixture (15 μL total) incubated for 20 min at 37° C. The digestion products were fractionated on a 4% denaturing polyacrylamide gel, and the cleavage patterns visualized by autoradiography. RNA levels were quantified using a phosphoimager (Fujifilm Model FLA-2000).
Allele-specific Cleavage of RPA70 mRNA in a Purified System. We first used an in vitro assay with E. coli RNase H and the in vitro transcribed 544-mer RPA70 mRNA fragments to examine the efficiency and allele specificity of structure-based targeting as compared to directly targeting the 1674U/C polymorphism. […] SNP-targeting oligos 1 and 2 were previously optimized for allele discrimination in a cell transfection assay (J. P. Basilion, unpublished results). Each of the SNP-targeting oligos is perfectly matched only with one of the two alleles; it is singly mismatched with the other allele. Single base mismatches formed between the SNP-targeting oligos and their respective non-targeting alleles contribute to the allele discrimination observed previously. Structure-targeting oligos 3 and 6 match perfectly with both alleles, and were designed to hybridize maximally with the single-stranded 1656 region of the U-allele, while avoiding the 1664 region which is slightly accessible in both alleles (FIG. 1b). Four and six additional nucleotides were added to the 5′-end of oligo 3 to produce oligos 4 and 5, respectively, to facilitate folding into hairpin structures for enhanced allele discrimination (27).

[2] = system: 1674U-allele of endogenous RPA70 mRNA; assay: Oligonucleotide-directed cleavage of endogenous RPA70 mRNA in HeLa cell extracts (Northern blot); assay type: biochemical, human; conditions: for cleavage of matched allele versus singly mismatched allele: HeLa (1674U) versus Calu-1 (1674C) extracts
Description: (§1) FIG. 4. Northern blot analysis of oligonucleotide-directed cleavage of endogenous RPA70 mRNA in human cell extracts. The extracts were prepared from HeLa and Calu-1 cells that express only the 1674U- or the 1674 C-allele of the RPA70 mRNA, respectively. In addition to PS-oligos 1, 2, 3, and 6 as described in FIG. 3, oligo 7 (5′ […] 3′; SEQ ID NO:1) was used in the assay as a non-allele-specific control oligo that targets nucleotides 2230-2249 of the 3′-UTR of RPA70 mRNA. a, Targeting the 1674U/C polymorphic site by oligos 1 and 2. b, Targeting the site of different allelic structures around nucleotide 1656 by oligos 3 and 6. Reactions were done in duplicates. The averaged data points of the duplicates are plotted with standard deviations as error bars, and are shown below the corresponding Northern blots. Intact RPA70 mRNA levels were normalized to GAPDH levels and expressed as a percentage of no-oligo control for each experiment.
Oligonucleotide-directed Cleavage of Endogenous RPA70 mRNA in Human Cell Extracts. Human tumor cell lines HeLa and Calu-1 (American Type Culture collection) were genotyped for SNPs in RPA70 cDNA by RFLP analysis and by sequencing. […] HeLa cells were cultured in monolayers in minimum essential medium (Gibco BRL), and Calu-1 cells were cultured in monolayers in McCoy's 5A medium (Sigma). Both media were supplemented with 10% heat inactivated fetal bovine serum (JRH Biosciences), 100 units/mL penicillin-100 μg/mL streptomycin (Gibco BRL), and 2 mM L-glutamine (Gibco BRL). Both cell lines were grown under 5% CO2/95% air in a humidified incubator at 37° C. For preparation of cell extracts, the cells were grown to 80-90% confluence, typsinized, and washed twice with the complete medium as specified above and twice with phosphate buffered saline (Gibco BRL). Approximately 5×10^7 Cells were lysed in a 15 mL tissue grinder with a Teflon pestle (Wheaton) in the presence of 1.5 mL lysis buffer (20 mM Tris.HCl, pH 7.5, 420 mM NaCl, 2 mM MgCl2, 0.2 mM EDTA, 1 mM DTT, 0.5 mM phenylmethyl sulfonylfluoride (PMSF), and 25% glycerol). The sodium salt concentration was chosen to facilitate the disruption of the nuclear membrane to release RNase H from nuclei (21). Up to 200 strokes were needed to completely lyse the cells, as checked using a hemacytometer. The cell lysate was centrifuged at 14,000, rpm for 10 min at 4° C., and cell extracts were obtained by transferring supernatant to clean microcentrifuge tubes and freezing immediately at −80° C. Total protein concentration of cell extracts was determined using the Bradford assay (Bio-Rad). For oligodeoxynucleotide-directed cleavage of endogenous mRNA reactions, cell extracts were diluted to a total protein concentration of 3 mg/mL with the lysis buffer. After the addition of a 10× PS-oligo solution to the diluted cell extracts, the reaction mixture was incubated for 40 min at 37° C. The level of intact RPA70 mRNA was determined by total RNA isolation and Northern blot hybridization using procedures described previously (22, 23), and followed by phosphoimager analysis. Northern probes specific for RPA70 mRNA were synthesized by random primed [α-^32P]dCTP-labeling of a cDNA probe corresponding to nucleotides 1519-2080 of human RPA70 mRNA. To account for variability in the amount of total RNA loaded into individual gel wells for Northern analysis, the level of glyceraldehyde 3-phosphate dehydrogenase (GAPDH) mRNA was also measured by first stripping the RPA70 mRNA probe, and then reprobing the same Northern blot with a random primed [α-^32P]dCTP-labeled cDNA probe corresponding to a 600 nucleotide sequence of human GAPDH (Stratagene).
Allele-specific Cleavage of Endogenous RPA70 mRNA in Human Cell Extracts. We next performed oligo-directed cleavage of the full-length, endogenous RPA70 mRNA in whole cell extracts prepared from two genotyped human cell lines, HeLa (1674U) and Calu-1 (1674C). […]

[3] = system: 1674C-allele of endogenous RPA70 mRNA; assay: Oligonucleotide-directed cleavage of endogenous RPA70 mRNA in Calu-1 cell extracts (Northern blot); assay type: biochemical, human; conditions: 300 nM oligo, Calu-1 (1674C) extracts
Description: as §1
Oligonucleotide-directed Cleavage of Endogenous RPA70 mRNA in Human Cell Extracts. […] Total protein concentration of cell extracts was determined using the Bradford assay (Bio-Rad). […] The level of intact RPA70 mRNA was determined by total RNA isolation and Northern blot hybridization using procedures described previously (22, 23), and followed by phosphoimager analysis. […]

[4] = system: 1674U- and 1674C-alleles of RPA70 mRNA; assay: Cell transfection assay (J. P. Basilion, unpublished results); assay type: cell-based, human; conditions: previously shown

Oligo 4: PS-oligo (SEQ ID NO:9), oligo 3 with four additional 5′-end nucleotides to facilitate folding into a hairpin structure (GAATCAAGTCACCCACTGATTCTC; all phosphorothioate, sugars by position and methylation of C not given here)
reduction in the cleavage of both alleles as compared to parent oligo 3 [1]: 23%
enhancement in allele discrimination versus parent oligo 3 [1]: no enhancement in allele discrimination

Oligo 2: Phosphorothioate oligodeoxyribonucleotide 18-mer (SEQ ID NO:7) targeting the RPA70 1674U/C polymorphic site, C-allele specific (dG*dC*dT*dT*dC*dA*dG*dC*dG*dG*dA*dC*dT*dC*dC*dT*dG*dG)
cleavage of matched allele versus singly mismatched allele ([2]; 300 nM oligo): equally or slightly more cleaved than the singly mismatched allele
extent of cleavage of the matched allele (C-allele) [3]: the majority of the matched allele remained uncleaved
cleavage efficiency, matched allele versus mismatched allele [1]: greater for their respective matched alleles than for the mismatched alleles

Oligo 1: Phosphorothioate oligodeoxyribonucleotide 20-mer (SEQ ID NO:6) targeting the RPA70 1674U/C polymorphic site, U-allele specific (dT*dA*dG*dC*dT*dT*dC*dA*dG*dC*dA*dG*dA*dC*dT*dC*dC*dT*dG*dG)
extent of cleavage of the matched allele (U-allele) ([2]; 300 nM oligo, HeLa (1674U) extracts): the majority of the matched allele remained uncleaved
cleavage of matched allele versus singly mismatched allele ([2]; 300 nM oligo): equally or slightly more cleaved than the singly mismatched allele
cleavage efficiency, matched allele versus mismatched allele [1]: greater for their respective matched alleles than for the mismatched alleles

5′ TGGTCTGCAGTTAGGGTCAG 3′ (phosphorothioate backbone, further chemistry not given here) [Oligo 7]
response of the two cell types to the control oligo ([2]; HeLa versus Calu-1 extracts, 100 to 600 nM): responded similarly
targeting efficiency on the 1674U- and 1674C-alleles [4]: equally high efficiency

Oligo 3: Phosphorothioate oligodeoxyribonucleotide 20-mer (SEQ ID NO:8) targeting the site of different allelic structures around nucleotide 1656 of RPA70 mRNA (dC*dA*dA*dG*dT*dC*dA*dC*dC*dC*dA*dC*dT*dG*dA*dT*dT*dC*dT*dC)
U-allele remaining uncleaved ([2]; 300 nM oligo, HeLa (1674U) extracts, intact mRNA normalized to GAPDH, % of no-oligo control): 15%
allele discrimination relative to that obtained by directly targeting the polymorphism with 20-mer 1 ([2]; HeLa versus Calu-1 extracts, percentage of intact mRNA evaluated, 100, 300 and 600 nM): two- to sixfold
non-target C-allele intact ([3]; intact mRNA normalized to GAPDH, % of no-oligo control): more than 90%

Oligo 5: PS-oligo (SEQ ID NO:10), oligo 3 with six additional 5′-end nucleotides to facilitate folding into a hairpin structure (GAGAATCAAGTCACCCACTGATTCTC; all phosphorothioate, sugars by position and methylation of C not given here)
reduction in the cleavage of both alleles as compared to parent oligo 3 [1]: 36%
enhancement in allele discrimination versus parent oligo 3 [1]: no enhancement in allele discrimination

Oligo 6: Phosphorothioate oligodeoxyribonucleotide 15-mer (SEQ ID NO:11) targeting the site of different allelic structures around nucleotide 1656 of RPA70 mRNA (dC*dA*dA*dG*dT*dC*dA*dC*dC*dC*dA*dC*dT*dG*dA)
allele discrimination compared with the other oligos ([2]; HeLa versus Calu-1 extracts, all three oligo concentrations (100, 300, 600 nM)): better allele discrimination than the SNP-targeting oligos 1 and 2
